Assay results: patent EP4782450A1, “NOVEL SKELETAL DERIVATIVE EFFECTIVE FOR HER2 MUTATION, AND PHARMACEUTICAL COMPOSITION COMPRISING SAME” (Hanmi Pharm. Co., Ltd., priority 2023, dated 2025)

Legend:
[1] = tested on: wild-type EGFR overexpressing Ba/F3 cells; test: Growth inhibition of Ba/F3 cells engineered to overexpress wild-type EGFR (CellTiter-Glo luminescence); assay type: cell-based; conditions: Mus musculus, BaF3, 72 hours, concentrations 10000 to 8 nM, read-out: Ba/F3 EGFR^WT GI50 class
Method: (§1) Experimental Example: Growth inhibition of Ba/F3 HER2 A775insYVMA and wild-type Ba/F3 cells
(§2) In this Experimental Example, the compounds obtained in Examples 1 to 92 were evaluated for their ability to inhibit growth of cells harboring either the HER2 A775insYVMA mutation or wild-type EGFR. For this purpose, Ba/F3 cells (ATCC, USA) were genetically engineered to overexpress either HER2 A775_G776insYVMA or wild-type EGFR, and the growth of these engineered Ba/F3 cells were monitored in the presence of the compounds described in the Examples to evaluate their effects on growth inhibition.
(§3) Specifically, culture flasks of the engineered Ba/F3 cells suspended in RPMI 1640 medium supplemented with 10% fetal bovine serum (FBS) and 1% penicillin/streptomycin (Gibco BRL, USA) were placed in a cell incubator and incubated at 37°C and 5% CO2 level to allow them to reach a stable logarithmic growth phase. The cells were then harvested by centrifugation to remove the old media and placed into a 96-well plate by dividing them into 100 µL aliquots per well at a dilution of 1×10^5 cells/mL in fresh media. Each of the compounds prepared in the preceding Examples were dissolved in 99.5% (cell culture grade) dimethylsulfoxide (DMSO) to prepare a stock solution of 10 mM concentration, which were serially diluted in the culture medium to final concentrations of 1000, 200, 40, 8, 1.6 and 0.32 nM for HER2 A775insYVMA Ba/F3 cells and concentrations of 10000, 5000, 1000, 200, 40 and 8 nM for wild-type EGFR overexpressing Ba/F3 cells.
(§4) To each aliquot of cells in the 96-well plate, a 50 µL test solution comprising one of the compounds was added to result in each well a 150 µL volume of cells with a compound in a final concentration ranging from 10 µM to 0.32 nM. The Ba/F3 cells treated with the test solution were incubated for 72 hours at 37°C and 5% CO2 level and underwent a 30-minute acclimation by placing the 96-well plate carrying the cells in ambient temperature. Thereafter, to each well was added 50 µL CellTiter-Glo® Luminescent Cell Assay Reagent (CTG, Promega, USA). After allowing 10 minutes to stabilize the signal, luminescence intensity was measured using a microplate reader. The half-maximal growth inhibition concentration (GI50) was calculated from the luminescence readout of the test compounds with the difference between the initial and final cell densities for the well untreated with a compound set at 100% growth. Nonlinear regression analysis based on log[inhibitor] vs. normalized response mode of the Graph Prism software was used for calculating GI50 for each compound, which are summarized in Table 6. The calculated GI50 values are classified in Table 6 into four categories: A for GI50 values less than 100 nM, B for GI50 values more than 100 nM but less than 1,000 nM, C for GI50 values more than 1,000 nM but less than 5,000 nM, and D for GI50 values of more than 5,000 nM.

Ba/F3 HER2 A775insYVMA = test: Growth inhibition of Ba/F3 cells engineered to overexpress HER2 A775_G776insYVMA (CellTiter-Glo luminescence); assay type: cell-based; conditions: Mus musculus, BaF3, 72 hours, concentrations 1000 to 0.32 nM, read-out: Ba/F3 HER2^YVMA GI50 class
Method: as §1, §2, §3, §4

GI50 [1] [nM] | GI50 (Ba/F3 HER2 A775insYVMA) [nM] | Structure (SMILES)
1000 to 5000 | < 100 | C=CC(=O)N1CC(/C=C/c2ccc3ncnc(Nc4ccc(Oc5cnc6c(c5)ncn6C)c(C)c4F)c3n2)C1 [Example 47]
> 5000 | 100 to 1000 | C=CC(=O)N1CC(/C=C/c2ccc3ncnc(Nc4ccc(Oc5ccc6cn(C)nc6c5)c(C)c4)c3n2)C1 [Example 48, (E)-1-(3-(2-(4-((3-methyl-4-((2-methyl-2H-indazol-6-yl)oxy)phenyl)amino)pyrido[3,2-d]pyrimidin-6-yl)vinyl)azetidin-1-yl)prop-2-en-1-one]
> 5000 | < 100 | C=CC(=O)N(CC)C/C=C/c1ccc2ncnc(Nc3ccc(Oc4ccc5c(c4)ncn5C)c(C)c3)c2n1 [Example 49, (E)-N-ethyl-N-(3-(4-((3-methyl-4-((1-methyl-1H-benzo[d]imidazol-5-yl)oxy)phenyl)amino)pyrido[3,2-d]pyrimidin-6-yl)allyl)acrylamide]
1000 to 5000 | < 100 | C=CC(=O)N(C)C(C)/C=C/c1ccc2ncnc(Nc3ccc(Oc4ccc5c(c4)ncn5C)c(C)c3)c2n1 (stereo not shown) [Example 50, (E)-N-methyl-N-(4-(4-((3-methyl-4-((1-methyl-1H-benzo[d]imidazol-5-yl)oxy)phenyl)amino)pyrido[3,2-d]pyrimidin-6-yl)but-3-en-2-yl)acrylamide]
1000 to 5000 | < 100 | C=CC(=O)N(C)[C@@H](C)/C=C/c1ccc2ncnc(Nc3ccc(Oc4ccc5c(c4)ncn5C)c(C)c3)c2n1 [Example 51, (S,E)-N-methyl-N-(4-(4-((3-methyl-4-((1-methyl-1H-benzo[d]imidazol-5-yl)oxy)phenyl)amino)pyrido[3,2-d]pyrimidin-6-yl)but-3-en-2-yl)acrylamide]
1000 to 5000 | < 100 | C=CC(=O)N(C)[C@H](C)/C=C/c1ccc2ncnc(Nc3ccc(Oc4ccc5c(c4)ncn5C)c(C)c3)c2n1 [Example 52, (R,E)-N-methyl-N-(4-(4-((3-methyl-4-((1-methyl-1H-benzo[d]imidazol-5-yl)oxy)phenyl)amino)pyrido[3,2-d]pyrimidin-6-yl)but-3-en-2-yl)acrylamide]
1000 to 5000 | < 100 | C=CC(=O)N(C/C=C/c1ccc2ncnc(Nc3ccc(Oc4ccc5c(c4)ncn5C)c(C)c3)c2n1)C(C)(C)C [Example 53, (E)-N-(tert-butyl)-N-(3-(4-((3-methyl-4-((1-methyl-1H-benzo[d]imidazol-5-yl)oxy)phenyl)amino)pyrido[3,2-d]pyrimidin-6-yl)allyl)acrylamide]
> 5000 | < 100 | C=CC(=O)N(C)C/C=C/c1ccc2ncnc(Nc3cc(C)c(Oc4ccc5c(c4)ncn5C)cc3OC)c2n1 [Example 54, (E)-N-(3-(4-((2-methoxy-5-methyl-4-((1-methyl-1H-benzo[d]imidazol-5-yl)oxy)phenyl)amino)pyrido[3,2-d]pyrimidin-6-yl)allyl)-N-methylacrylamide]
> 5000 | < 100 | C=CC(=O)N(C)C/C=C/c1ccc2ncnc(Nc3ccc(Oc4ccc5c(c4)ncn5C)c(F)c3)c2n1 [Example 55, (E)-N-(3-(4-((3-fluoro-4-((1-methyl-1H-benzo[d]imidazol-5-yl)oxy)phenyl)amino)pyrido[3,2-d]pyrimidin-6-yl)allyl)-N-methylacrylamide]
100 to 1000 | < 100 | C=CC(=O)N(C)C/C=C/c1ccc2ncnc(Nc3ccc(Cc4ccn5ncnc5c4)c(C)c3)c2n1 [Example 56, (E)-N-(3-(4-((4-([1,2,4]triazolo[1,5-a]pyridin-7-ylmethyl)-3-methylphenyl)amino)pyrido[3,2-d]pyrimidin-6-yl)allyl)-N-methylacrylamide]
100 to 1000 | < 100 | C=CC(=O)N(C)C/C=C/c1ccc2ncnc(Nc3ccc(Oc4ccc5ocnc5c4)c(C)c3)c2n1 [Example 57, (E)-N-(3-(4-((4-(benzo[d]oxazol-5-yloxy)-3-methylphenyl)amino)pyrido[3,2-d]pyrimidin-6-yl)allyl)-N-methylacrylamide]
